The experiment deals with T1, HIV protease (Human immunodeficiency virus type 1 group M subtype B, UniProt P12497).
T1 construct: HIV protease expressed in Escherichia coli; made in house; host or cells: Escherichia coli
Nature of the experiment: Assay for Inhibition of Recombinant HIV Protease (APRIN 2.1). The format is biochemical. Particulars: pH 5.5, 60 min, 37° C. On the procedure:
Assay for Inhibition of Recombinant HIV Protease (APRIN 2.1)
Inhibition studies were performed on the reaction of the HIV protease expressed in Escherichia coli with a tritiated peptide substrate [^3 H]-acetyl-Val-Ser-Gln-Asn-(beta-napthyl-Ala)-Pro-Ile-Val-Gln-Gly-Arg-Arg-NH2 (MW 1800). The two arginine residues at the carboxyl terminus give this peptide an overall positive charge at acidic pH and enable it to bind to the H^+ form of DOWEX AG-50W-X8 resin and similar resins.
Aliquots of 25 μl containing 6.0-8.0 nM HIV protease in assay buffer (100 mM sodium acetate, pH 5.5 and 0.1% BSA) are placed in assay tubes. The reaction is initiated by addition of 25 μl aliquots of 4.2 μM tritiated peptide substrate in 100 mM sodium acetate, pH 5.5. After incubation for 60 min at 37° C., the reaction is stopped with 100 μl of 5% H3 PO4, then analysed by application of column chromatography.

Turning to `CC(C)(C)OC(=O)N[C@@H](Cc1ccccc1)[C@@H](O)C[C@@H](Cc1ccc(OCCN2CCOCC2)cc1)C(=O)N[C@H]1c2ccccc2C[C@H]1O` [L-689,502, N-(cis-2(R)-hydroxy-1(S) -indanyl)-5(S)-(1,1-dimethylethoxycarbonylamino)-4(S)-hydroxy-6-phenyl-2(R)-[(4-(2-(4-morpholinyl)ethoxy)phenyl)methyl]-hexanamide], where the note is “0.625 ng/ml, control”, the inhibition at 0.000625 µg/mL was -2%. Besides, under “1.25 ng/ml, control”, the inhibition at 0.00125 µg/mL was 21%. Under “2.5 ng/ml, control”, the inhibition at 0.0025 µg/mL is 54%. Also, the inhibition at 0.005 µg/mL (5 ng/ml, control) stood at 69%. Under “10 ng/ml, control”, the inhibition at 0.01 µg/mL came to 86%.
In the case of `CC(C)(CO)OC(=O)N[C@@H](Cc1ccccc1)[C@@H](O)C[C@@H](Cc1ccc(OCCN2CCOCC2)cc1)C(=O)N[C@H]1c2ccccc2C[C@H]1O` [L-697,811], the inhibition at 0.0116 µg/mL (11.6 ng/ml, major metabolite from culture S-29-145, read-out: APRIN 2.1 Act. (% Inhib.)) amounted to 92%.

Values taken from patent US5187074A, “Method of hydroxylation with ATCC 55086” (Merck & Co., Inc., priority 1992, dated 1993).
